pEC50, pIC50: −log10 of the molar value.

For one assay, the target named is T1, HIV-1 Protease (Human immunodeficiency virus type 1 group M subtype B, UniProt P04585).
T1 construct: HIV-1 Protease; purchased Bachem Bioscience Inc
The assay can be described thus: HIV protease inhibition (undecapeptide substrate cleavage, HPLC). It is filed as biochemical. Particulars: 37° C., 5 min, 40 μM substrate, pH 4.7, 2% DMSO, read-out: 50% INHIBITION CONCENTRATION
As for the experimental part: 1.0 mM dithiothreitol (DTT) was prepared fresh daily in 0.1% polyethylene glycol (mw 8000) 80 mM NaOAc, 160 mM NaCl, 1.0 mM EDTA, and brought to pH 4.7 with HCl.
The enzyme is obtained from Bachem Bioscience Inc. The undiluted enzyme is thawed from -80° C. and diluted 50-fold with DTT buffer. The solution is always kept at 0° C. on ice water and used in the experiment within 20 minutes after thawing.
Substrate III from Bachem Bioscience Inc. is the undecapeptide H-His-Lys-Ala-Arg-Val-Leu-p-Nitrophenylalanine-Glu-Ala-Norleucine-Ser-NH2 (>97% purity). A 200 μM stock solution in DTT buffer is prepared and stored on ice. Substrate solution is prepared fresh daily.
10 mM inhibitor (I) in dimethyl sulfoxide (DMSO) is diluted to 200 μM with DTT buffer. From the 200 μM stock solution is made a 10 μM stock solution with 2% DMSO in DTT buffer. The two inhibitor solutions are used to make final [I] =100, 50, 20, 10, 5, 2, 1, 0.5 and 0 μM with 2% DMSO in DTT buffer in each reaction well (total inhibitor volume of 50 μl).
To each reaction well is added 20 μl of substrate (final concentration of 40 μM), 50 μl of inhibitor (at a concentration such that final dilution will produce the test concentration) and 20 μl of DTT buffer. The reaction plate (96 wells) is incubated at 37° C. for at least 5 minutes.
10 μl of the diluted protease is added to the reaction well while the reaction plate is shaking. Once shaken for 10 seconds, the plate is returned to the heating block at 37° C. (final reaction volume 100 μl.)
The reaction is incubated for 5 minutes at 37° C. The reaction is stopped by placing the reaction plate on the shaker and adding 20 μl of 10% trifluoroacetic acid (TFA) and shaking for 10 seconds. The amount of proteolysis is then determined by separation of noncleaved substrate and two cleaved products with reverse-phase HPLC, while measuring absorbance at 220 nm to determine the relative peak areas of the three components. The relative peak areas are used to calculate % conversion to product as a function of inhibitor concentration. The data are plotted as % Control (the ratio of % conversion in the presence and absence of inhibitor×100) versus inhibitor concentration and fitted with the equation Y=100/1+(X/IC50)^A, where IC50 is the inhibitor concentration at 50% inhibition and A is the slope of the inhibition curve.
As for `CC(C)CCC1(c2ccccc2)CC(O)=C(SCc2ccccc2-c2ccccc2)C(=O)O1` (racemic) [Example 95, 3-(Biphen-2-ylmethylthio)-5,6-dihydro-4-hydroxy-6-(3-methylbutyl)-6-phenyl-2H-pyran-2-one], the pIC50 was 5.96. In the case of `CC(C)CC1(c2ccccc2)CC(O)=C(SCc2ccccc2)C(=O)O1` (racemic) [Example 5, 5,6-Dihydro-4-hydroxy-6-(2-methylpropyl)-6-phenyl-3-[(phenylmethyl)thio]-2H-pyran-2-one], the pIC50 is 6.40.

For `CC(C)CCC1(c2ccccc2)CC(O)=C(Sc2ccccc2C(C)C)C(=O)O1` (racemic) [Example 75, 5,6-Dihydro-4-hydroxy-6-(3-methylbutyl)-6-phenyl-3-(2-isopropyl-phenylthio)-2H-pyran-2-one], the pIC50 is 7.55.

`O=C(CCCC1(c2ccccc2)CC(O)=C(SCc2ccccc2)C(=O)O1)NCc1ccccc1` (racemic) [Example 61, N-Benzyl-4-(3,6-dihydro-4-hydroxy-6-oxo-2-phenyl-5-[(phenylmethyl)thio]-2H-pyran-2-yl)butyramide]: the pIC50 was 6.66. Same read-out and setting: the same measure for `O=C(O)CCCCC1(c2ccccc2)CC(O)=C(SCCc2ccccc2)C(=O)O1` (racemic) [Example 56, 5-(3,6-Dihydro-4-hydroxy-6-oxo-2-phenyl-5-[(2-phenylethyl)thio]-2H-pyran-2-yl)pentanoic acid]: 8.30; for `O=C1OC(CCc2ccccc2)(c2ccccc2)CC(O)=C1Cc1ccccc1C(F)(F)F` (centres unmarked) [Example 114, 5,6-Dihydro-4-hydroxy-6-phenyl-6-(2-phenylethyl)-3-[(2-trifluoromethylphenyl)methyl]-2H-pyran-2-one]: 7.10; for `O=C1OC(c2ccccc2)CC(O)=C1SCCc1ccccc1` (racemic) [Example 2, 5,6-Dihydro-4-hydroxy-6-phenyl-3-[(2-phenylethyl)thio]-2H-pyran-2-one]: 5.72.

With `Cc1ccc(C)c(CSC2=C(O)CC(CCc3ccccc3)(c3ccccc3)OC2=O)c1` (racemic) [Example 90, 5,6-Dihydro-4-hydroxy-3-[(2,5-dimethylphenyl)methylthio]-6-phenyl-6-(2-phenylethyl)-2H-pyran-2-one], the pIC50 is 6.85.

Take `O=C1OC(CCc2ccccc2)(c2ccccc2)CC(O)=C1SCCc1ccccc1` (racemic) [Example 40, 5,6-Dihydro-4-hydroxy-6-phenyl-6-(2-phenylethyl)-3-[(2-phenylethyl)thio]-2H-pyran-2-one]: the pIC50 is 7.22. `O=C1OC(CCc2ccc(Cl)c(Cl)c2)(c2ccccc2)CC(O)=C1SCc1ccccc1` (racemic) [Example 44, 6-[2-(3,4-Dichlorophenyl)ethyl]-5,6-dihydro-4-hydroxy-6-phenyl-3-[(phenylmethyl)thio]-2H-pyran-2-one]: the pIC50 was 6.49. Same read-out and setting: the same measure for `O=C1OC(c2ccccc2)(c2ccccc2)CC(O)=C1SCc1ccccc1` [Example 37, 5,6-Dihydro-4-hydroxy-6,6-diphenyl-3-[(phenylmethyl)thio]-2H-pyran-2-one]: 6.59; for `O=C1OC2(CCCc3ccccc32)CC(O)=C1SCc1ccccc1` (racemic) [Example 52, 3,4-Dihydro-4'-hydroxy-5'-[(phenylmethyl)thio]-spiro[naphthalene-1(2H),2'-[2H]pyran]-6'(3'H)-one]: 5.70. Turning to `O=C1OC(CCc2ccccc2)(c2ccccc2)CC(O)=C1SCc1ccccc1` (racemic) [Example 39, 5,6-Dihydro-4-hydroxy-6-phenyl-6-(2-phenylethyl)-3-[(phenylmethyl)thio]-2H-pyran-2-one], the pIC50 was 7.30. Same read-out and setting: the same measure for `CCCCC1(c2ccc(-c3ccccc3)cc2)CC(O)=C(SCCc2ccccc2)C(=O)O1` (racemic) [Example 22, 6-[1,1'-Biphenyl]-4-yl-6-butyl-5,6-dihydro-4-hydroxy-3-[(2-phenylethyl)thio]-2H-pyran-2-one]: 5.96; for `CC(C)CCC1(c2ccccc2)CC(O)=C(SCc2ccccc2)C(=O)O1` (racemic) [Example 35, 5,6-Dihydro-4-hydroxy-6-(3-methylbutyl)-6-phenyl-3-[(phenylmethyl)thio]-2H-pyran-2-one]: 6.92; for “5,6-Dihydro-4-hydroxy-3-[(3-methoxyphenyl)methyl]-6-phenyl-6-(2-phenylethyl)-2H-pyran-2-one [Example 119]”: 7.01.

As for `CCCCC1(c2ccccc2)CC(O)=C(SCc2ccccc2)C(=O)O1` (racemic) [Example 29, 6-Butyl-5,6-dihydro-4-hydroxy-6-phenyl-3-[(phenylmethyl)thio]-2H-pyran-2-one], the pIC50 is 6.59. Consider `O=C1OC(CCc2ccccc2)(c2ccccc2)CC(O)=C1SCc1ccccc1-c1ccccc1` (racemic) [Example 92, 3-(Biphenyl-2-ylmethylthio)-5,6-dihydro-4-hydroxy-6-phenyl-6-(2-phenylethyl)-2H-pyran-2-one], for which the pIC50 is 6.57. With `O=C1OC(CC2CCCC2)(c2ccccc2)CC(O)=C1SCc1ccccc1` (racemic) [Example 50, 6-Cyclopentylmethyl-5,6-dihydro-4-hydroxy-6-phenyl-3-[(phenylmethyl)thio]-2H-pyran-2-one], the pIC50 is 7.06. For `CC(C)CCC1(c2ccccc2)CC(O)=C(SCc2ccccc2Cl)C(=O)O1` (racemic) [Example 94, 3-(2-Chlorophenylmethylthio)-5,6-dihydro-4-hydroxy-6-(3-methylbutyl)-6-phenyl-2H-pyran-2-one], the pIC50 was 6.66. For `Cc1cccc(SC2=C(O)CC(c3ccccc3)(c3ccccc3)OC2=O)c1` [Example 70, 5,6-Dihydro-4-hydroxy-3-(3-methylphenylthio)-6,6-diphenyl-2H-pyran-2-one], the pIC50 is 6.96. Take `O=C1OC(CCc2ccccc2)(c2ccccc2)CC(O)=C1Sc1ccccc1` (racemic) [Example 71, 5,6-Dihydro-4-hydroxy-6-phenyl-6-(2-phenylethyl)-3-phenylthio-2H-pyran-2-one]: the pIC50 is 7.00.

For `O=C1OC(c2ccc(OCc3ccccc3)cc2)CC(O)=C1SCCc1ccccc1` (centres unmarked) [Example 14], the pIC50 was 5.60. On the same count and under the same terms, the same measure for `O=C1OC(c2ccccc2)(c2ccccc2)CC(O)=C1CCCc1ccccc1` [Example 66, 5,6-Dihydro-4-hydroxy-6,6-diphenyl-3-(3-phenylpropyl)-2H-pyran-2-one]: 6.41; for `O=C1OC(c2ccccc2)(c2ccncc2)CC(O)=C1SCCc1ccccc1` (racemic) [Example 57, 5,6-Dihydro-4-hydroxy-6-phenyl-3-[(2-phenylethyl)thio]-6-pyridin-4-yl-2H-pyran-2-one]: 6.19.

The next assay has as its system HIV1iiib in H9 cells. The assay can be described thus: Antiviral activity in H9 cells (acute HIV-1 infection, reverse transcriptase assay). It counts as cell-based. Particulars: Human immunodeficiency virus 1, multiplicity of infection 0.01, 0.1% DMSO, read-out: Concentration for 50% Protection. As to the method: Using the general methods of Pauwels et al., (J. Virol. Methods, 16, 171-185, 1987) and Mann et al. (AIDS Research and Human Retroviruses, 253-255, 1989 (anti-viral assays of active HIV-1 infection were performed in the H9 cell line. Cultures were batch infected in 1 ml of RPM1 1640 media/10% fetal calf serum containing 10^5 infectious doses of HIV1iiib for an effective multiplicity of infection of 0.01. After 2 hours of viral absorption, cells were washed once and palted in 96-wellmicrotiter plates at a density of 10^4 cells per well. Test compounds were added to produce the desired concentration of drug and 0.1% DMSO in a final volume of 200 μl. Uninfected parallel cultures were maintained for XTT cytotoxicity assay at 7 days post infection. Cultures were tested for viral replication by reverse transcriptase assay at 4 and 7 days post infection.
Consider `CC(C)CCC1(c2ccccc2)CC(O)=C(SCc2ccccc2-c2ccccc2)C(=O)O1` (racemic) [Example 95, 3-(Biphen-2-ylmethylthio)-5,6-dihydro-4-hydroxy-6-(3-methylbutyl)-6-phenyl-2H-pyran-2-one], for which the pEC50 is 4.41. `O=C1OC(CCc2ccccc2)(c2ccccc2)CC(O)=C1Cc1ccccc1C(F)(F)F` (centres unmarked) [Example 114, 5,6-Dihydro-4-hydroxy-6-phenyl-6-(2-phenylethyl)-3-[(2-trifluoromethylphenyl)methyl]-2H-pyran-2-one]: the pEC50 was 4.59.

Consider `CC(C)CCC1(c2ccccc2)CC(O)=C(SCc2ccccc2Cl)C(=O)O1` (racemic) [Example 94, 3-(2-Chlorophenylmethylthio)-5,6-dihydro-4-hydroxy-6-(3-methylbutyl)-6-phenyl-2H-pyran-2-one], for which the pEC50 was 4.54.

Still in this assay, the particulars now being: multiplicity of infection 0.01, 0.1% DMSO, read-out: Concentration for 50% Protection.
For the compound “5,6-Dihydro-4-hydroxy-3-[(3-methoxyphenyl)methyl]-6-phenyl-6-(2-phenylethyl)-2H-pyran-2-one [Example 119]”, the pEC50 was 4.23.

Source of the values: patent US5789440A, “5,6-dihydropyrone derivatives as protease inhibitors and antiviral agents” (Warner-Lambert Company, priority 1994, dated 1998).
